Measurements from US10106853B2, “CUL4B as predictive biomarker for cancer treatment” (CORNELL UNIVERSITY, priority 2012, dated 2018).
Where two headings read alike, the source gives them in different places.

Assays:
BT474 xenograft tumors = type: in vivo, athymic Nu/J nude mice; conditions: for Xenograft tumor growth under topotecan treatment: topotecan i.p. 5 mg/g every fourth day
Protocol: (§1) FIG. 5. CUL4B inactivation sensitized BT474 xenograft tumors to topotecan. Stable TGL-BT474 cells (BT474 cells stably expressing GFP-luciferase reporter) were established by retroviral transduction and FACS sorting. The resulting TGL-BT474 cells were infected with recombinant lentiviruses expressing non-targeting shCtrl, shCUL4A or shCUL4B, followed by selection of infected cells with 4 μg/ml puromycine for one week. A) Knockdown of endogenous CUL4A and 4B were verified by immunoblotting. B, C) 1×10^7 of control, CUL4A^k/d, or CUL4B^k/d TGL-BT474 cells were injected subcutaneously in the right flank of each athymic Nu/J nude mice, treated (i.p.) with toptoecan at a dose of 5 mg/g on every 4th day, and tumor burden was measure by bioluminescent imaging. Statistical significance in tumor burden between control and CUL4A^k/d or CUL4B^k/d xenograph are assessed by a two-tailed unpaired student t-test (***: p<0.001). D) Growth rate of control, CUL4A^k/d and CUL4B^k/d BT474 cells in vitro. The same number of control, CUL4A^k/d and CUL4B^k/d BT474 cells were seeded to 96-well plates and cell proliferation was measured using the XTT Cell Proliferation Assay Kit. The data represent the mean value of fold change of cells. Bars indicate the S.E. of six independent experiments. Statistical significance in cellular rate between control cells and CUL4A^k/d or CUL4B^k/d cells are assessed by student's t-test. E-F) Growth rate of control, CUL4A^k/d and CUL4B^k/d TGL-BT474 xenograft in vivo. 1×10^7 of control, CUL4A^k/d or CUL4B^k/d TGL-BT474 cells were injected subcutaneously in the right flank of each mouse of athymic Nu/J nude mice, and tumor burden was measured by bioluminescent imaging (E). On the 22nd day, tumors were collected, and the weight of exercised tumors was measured after mice were sacrificed (F).
The effect of CUL4B knockdown on an organism's response to CPT treatment was tested in vivo by examining the sensitivity of BT474-CUL4B^k/d, BT474-CUL4A^k/d and control BT474 xenograft tumors to topotecan treatment. Topotecan, (S)-10-[(dimethylamino)methyl]-4-ethyl-4,9-dihydroxy-1H-pyrano[3′,4′:6,7]indolizino[1,2-b]quinoline-3,14(4H,12H)-dione monohydrochloride, is an FDA-approved Top1-directed chemotherapy for the treatment of ovarian, cervical and small cell lung cancer, under the trade name Hycamtin™. Nude mice bearing BT474 xenografts on dorsal skin were treated with topotecan every four (4) days for a period of 44 days. Prior to topotecan administration, the size of the xenograft tumors were identical (FIG. 5). Topotecan was then administered via intraperitoneal injection, and tumor mass was monitors by bioluminescent imaging in four day intervals. […] To rule out the possibility that the growth rate of xenografts were altered during the CUL4B inactivation process (treatment with shRNA) the tumor mass of the three xenograft groups were measured in the absence of topotecan treatment and the weight of the exercised xenograft tumors were analyzed.
Six week old Female athymic Nu/J nude mice were purchased from Jackson Labs. Mice were housed in laminar air-flow cabinets under specific pathogen-free conditions. Nude mice were inoculated with 0.36 mg 60-day-release 17-b-estradiol pellets (Innovative Research) 24 to 48 hours before implantation of BT-474 cells. 1×10^7 BT-474 cells in 50 ul DMEM medium and 300 ul diluted BD Matrigel™ Basement Membrane Matrix (BD Bioscience, Matrix: PBS is 2:1) were injected subcutaneously in the right flank of each mouse. Tumors were detected once every four days by an IVIS Imaging System (Caliper Life Sciences). When tumors were available to be detected, mice were initially treated with topotecan. Topotecan was administered intraperitoneally on every fourth day from the initiation of therapy at doses of 5 mg/g.
The IVIS Imaging System (Caliper life sciences) was used for bioluminescent image acquisition and analysis. […]

BT474 cells = assay: XTT Cell Proliferation Assay, growth rate of BT474 cells in vitro; type: cell-based, Human; conditions: knockdown cells vs control, no drug
Protocol: as §1, with “B, C) 1×10^7 of control, CUL4A^k/d, or CUL4B^k/d TGL-BT474 cells were injected subcutaneously in the right flank of each athymic Nu/J nude mice, treated (i.p.) with toptoecan at a dose of 5 mg/g on every 4th day, and tumor burden was measure by bioluminescent imaging.” left out, “D) Growth rate of control, CUL4A^k/d and CUL4B^k/d BT474 cells in vitro.” left out, “The data represent the mean value of fold change of cells. Bars indicate the S.E. of six independent experiments.” left out, “E-F) Growth rate of control, CUL4A^k/d and CUL4B^k/d TGL-BT474 xenograft in vivo.” left out

Top1 = molecular target: T1, Top1 (Homo sapiens, UniProt P11387); assay: CPT-induced TOP1 down regulation assay (immunoblotting); type: cell-based; conditions: BT474 cells, lentiviral shRNA; CPT 50 μM, 1 to 1.5 hr
T1 construct: CPT-induced TOP1 degradation in breast cancer cell lines; host or cells: human breast cancer cell lines BT474, BT20, MCF-7, MDA-MB-231, T47D, Sk-Br-3 (MCF-10A as control)
T1 sequence (P11387 1-765): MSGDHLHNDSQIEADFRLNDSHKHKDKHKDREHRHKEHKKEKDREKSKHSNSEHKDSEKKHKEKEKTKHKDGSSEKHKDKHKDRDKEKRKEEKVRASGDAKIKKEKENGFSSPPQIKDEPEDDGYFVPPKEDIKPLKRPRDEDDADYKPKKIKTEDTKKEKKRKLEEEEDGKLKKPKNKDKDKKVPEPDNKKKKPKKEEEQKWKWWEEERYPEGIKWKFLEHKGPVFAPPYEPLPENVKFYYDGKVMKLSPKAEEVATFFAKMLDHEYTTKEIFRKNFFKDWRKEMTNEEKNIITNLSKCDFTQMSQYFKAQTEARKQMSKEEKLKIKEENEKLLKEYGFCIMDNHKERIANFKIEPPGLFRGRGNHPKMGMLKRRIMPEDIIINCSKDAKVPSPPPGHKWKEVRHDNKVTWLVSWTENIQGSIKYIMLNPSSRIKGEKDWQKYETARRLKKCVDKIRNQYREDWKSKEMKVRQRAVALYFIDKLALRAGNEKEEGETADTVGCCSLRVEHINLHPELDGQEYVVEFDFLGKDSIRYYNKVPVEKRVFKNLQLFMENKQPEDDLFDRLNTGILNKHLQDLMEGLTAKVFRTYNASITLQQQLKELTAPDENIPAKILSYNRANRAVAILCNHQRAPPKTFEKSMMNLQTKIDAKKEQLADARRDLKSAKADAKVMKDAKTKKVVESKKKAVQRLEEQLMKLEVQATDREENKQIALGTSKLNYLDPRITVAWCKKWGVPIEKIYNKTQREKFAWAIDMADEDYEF
Protocol: FIG. 1. CPT-induced TOP1 degradation in breast cancer cell lines. A) Expression of endogenous CUL4A and 4B in breast cancer cell lines. Total cell lysates were prepared from the indicated breast cancer cell lines and subjected to SDS PAGE and immunoblotting with antibodies against CUL4A, 4B and α-tubulin. The non-cancerous MCF-10A cell line was used as a control for comparison. B) CPT-induced TOP1 degradation in breast cancer cell lines. Cells were treated with 12.5 μM CPT or 1% DMSO for 4 hours, replenished with CPT-free fresh medium and incubated at 37° C. for 30 minutes to reverse the formation of TOP1 cleavable complex. Cells were then lysed and immunoblotted with the TOP1 and α-tubulin antibodies.
FIG. 2. CUL4B interacted with Top1 and induced Top1 degradation in the presence of CPT. A) Knockdown of CUL4B impaired CPT-induced Top1 degradation. BT474 cells were infected with lentiviral shCUL4B, shCUL4A or control non-targeting shRNA, and selected for stable CUL4B^k/d or CUL4A^k/d cells upon treatment with puromycin. Following treatment with CPT (50 μM) for 1 hour, cells were replenished with CPT-free fresh medium and incubated at 37° C. for 30 minutes. Top1 degradation was assessed by immunoblotting with an anti-Top1 antibody. Levels of α-tubulin were measured as a loading control. B) Association of CUL4B with Top1 following CPT treatment. BT474 cells were treated with proteosome inhibitor MG132 (15 μM) for 3 hours, and were subjected to crosslinking with 0.2 mM Dithiobis[succinimidyl propionate](DSP) for the last 30 min at room temperature. Cell lysates were prepared, and immunoprecipitated with the anti-Top1 or anti-CUL4B antibodies, and then immunoblotted using antibodies against CUL4B or Top1, respectively. IgG immunoprecipitates served as the negative control. C) Knockdown of CUL4B using a second shCUL4B-2 impaired CPT-induced Top1 degradation. BT474 cells were infected with lentiviral shCUL4B-2, shCUL4A-2 or control non-targeting shRNA and selected for stable CUL4B^k/d or CUL4A^k/d cells upon treatment with puromycin. Following treatment with CPT (50 μM) for 1.5 hr, cells were replenished with CPT-free fresh medium and incubated at 37° C. for 30 min. Top1 degradation was assessed by immunoblotting with the anti-Top1 antibody. Levels of α-tubulin were measured as a loading control. D) CUL4B inactivation sensitized BT474 cells to cytotoxic killing by camptothecin. BT474, BT474-CUL4A^k/d or BT474-CUL4B^k/d cells were synchronized with 1 μM nocodazole for 13 hours released in fresh medium, treated with the indicated concentrations of CPT for three days, and subjected to the XTT assay to measure the cytotoxic responses to CPT. […] The bars indicate the S.E. of six independent experiments. Statistical significance in cellular response to CPT between control BT474 cells and CUL4A^k/d or CUL4B^k/d cells were assessed by a two-tailed unpaired student t-test (***: p<0.001). The same results were obtained with a second lentiviral shRNA for CUL4A and CUL4B, as well as in T47D breast cancer cells. E, F) Knockdown of CUL4B increased the sensitivity of T47D cells to camptothecin. […] Statistical significance in cellular response to camptothecin between control cells and CUL4A^k/d or CUL4B^k/d BT474 cells are assessed by student's t-test.
CPT-induced Top1 degradation was monitored by immunoblotting of the alkaline lysates. […]

shCUL4A: lentiviral shRNA CUL4A sequence purchased from Sigma Aldrich (CCGGGCAGAACTGATCGCAAAGCATCTCGAGATGCTTTGCGATCAGTTCTGCTTTTT)
Growth rate of xenografts vs control (BT474 xenograft tumors; without topotecan administration, tumor burden and excised tumor weight): no significant difference | Growth rate of cultured BT474 cells in vitro (BT474 cells): reduced the growth rate slightly

shCUL4B-2: second lentiviral shRNA CUL4B sequence purchased from Sigma Aldrich (CCGGGCAATTCTTCAGAAAGGTTTACTCGAGTAAACCTTTCTGAAGAATTGCTTTTT)
Effect of shRNA knockdown on CPT-induced Top1 degradation (Top1): impaired

CC[C@@]1(O)C(=O)OCc2c1cc1n(c2=O)Cc2cc3c(CN(C)C)c(O)ccc3nc2-1.Cl [topotecan, (S)-10-[(dimethylamino)methyl]-4-ethyl-4,9-dihydroxy-1H-pyrano[3′,4′:6,7]indolizino[1,2-b]quinoline-3,14(4H,12H)-dione monohydrochloride]
Xenograft tumor growth under topotecan treatment (BT474 xenograft tumors; BT474-CUL4A k/d xenografts, 44 days): continue to grow | Xenograft tumor growth under topotecan treatment (BT474 xenograft tumors; BT474-CUL4B k/d xenografts vs control and CUL4A k/d groups (p<0.001)): largely attenuated | Xenograft tumor growth under topotecan treatment (BT474 xenograft tumors; control BT474 xenografts, 44 days): continue to grow | Size of control and shCUL4A xenografts relative to shCUL4B xenografts (BT474 xenograft tumors; final day of topotecan treatment): 5 fold | Detection of xenografts by bioluminescent imaging (BT474 xenograft tumors; several shCUL4B xenografts, final day of topotecan treatment): not detectable
